Consider 43 compounds from patent US12150995B2, “IRAK degraders and uses thereof” (Kymera Therapeutics, Inc., priority 2020, dated 2024).

Broadly, the DC50 is the concentration giving 50% degradation. Read a low DC50 as degradation at low concentration.

In the assay the target is T1, IRAK4 (Homo sapiens, UniProt Q9NWZ3).
T1 construct: endogenous in cells; host or cells: OCI-LY10
T1 sequence (Q9NWZ3 1-460): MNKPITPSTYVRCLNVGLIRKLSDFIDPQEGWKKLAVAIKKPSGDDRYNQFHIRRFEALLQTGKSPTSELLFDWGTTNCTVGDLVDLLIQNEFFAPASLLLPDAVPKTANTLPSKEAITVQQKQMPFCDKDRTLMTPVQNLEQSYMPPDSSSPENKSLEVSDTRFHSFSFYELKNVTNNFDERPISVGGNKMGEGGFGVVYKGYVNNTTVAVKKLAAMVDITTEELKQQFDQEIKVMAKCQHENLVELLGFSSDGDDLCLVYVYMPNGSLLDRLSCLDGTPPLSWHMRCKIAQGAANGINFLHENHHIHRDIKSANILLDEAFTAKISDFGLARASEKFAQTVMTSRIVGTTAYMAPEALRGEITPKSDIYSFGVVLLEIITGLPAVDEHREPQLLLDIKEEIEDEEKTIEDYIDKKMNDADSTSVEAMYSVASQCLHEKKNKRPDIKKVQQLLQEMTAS
Briefly: IRAK4 MSD Degradation in OCI-LY10. The note with it: OCI-LY10 cells, Meso Scale Discovery, incubated 4 to 24 hours. Format: cell-based. An outline of the steps:
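IRAK4 degradation was quantified by Meso Scale electrochemiluminescence (anti-IRAK4 capture and detection antibodies) in lysates of treated OCI-LY10 cells. Compounds were dosed at 8 concentrations (1:3 dilutions, top 1 to 10 μM) for 4 to 24 h; DC50 derived by three-parameter logistic fitting.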

Take `COc1cc2nn([C@H]3CC[C@H](CN4CC[C@@H](c5cccc6c5n(C)c(=O)n6C5CCC(=O)NC5=O)C4)CC3)cc2cc1NC(=O)c1cccc(C(F)(F)F)n1` (stereo partly shown) [I-428]: the DC50 was less than 10 nM.

The compound `Cn1c(=O)n(C2CCC(=O)NC2=O)c2cccc(C3CCN(C[C@H]4CC[C@H](n5cc6cc(NC(=O)c7cncc(C(F)(F)F)n7)c(F)cc6n5)CC4)CC3)c21` (stereo partly shown) [I-45] gave a DC50 of less than 10 nM.

In turn, `CC(C)(O)c1cc2nc([C@H]3CC[C@H](CN4CCO[C@@H](CCCNc5cccc6c5C(=O)N(C5CCC(=O)NC5=O)C6=O)C4)CC3)sc2cc1NC(=O)c1cccc(C#N)n1` (stereo partly shown) [I-438] displayed a DC50 of 10 to 50 nM.

On to `CN(CCNc1cccc2c1C(=O)N(C1CCC(=O)NC1=O)C2=O)C(=O)[C@H]1CC[C@H](c2nc3cc(C(C)(C)O)c(NC(=O)c4cccc(C(F)(F)F)n4)cc3s2)CC1` (stereo partly shown) [I-488], for which the DC50 is 100 to 200 nM.

Compound `COc1ccc2c(c1C1CCN(C[C@H]3C[C@H](n4cc5cc(NC(=O)c6cccc(C(F)(F)F)n6)ccc5n4)C3)CC1)n(C)c(=O)n2C1CCC(=O)NC1=O` (stereo partly shown) [I-152] came in with a DC50 of 10 to 50 nM.

For the compound `Cn1c(=O)n(C2CCC(=O)NC2=O)c2cccc(C3CCN(C[C@H]4CC[C@H](n5cc6cc(NC(=O)c7cccc(C(F)(F)F)n7)c(N7C[C@@H]8C[C@H]7CO8)cc6n5)CC4)CC3)c21` (stereo partly shown) [I-55], the DC50 was 10 to 50 nM.

`Cn1c(=O)n(C2CCC(=O)NC2=O)c2cccc(N3C[C@@H]4C[C@H]3CN4C[C@H]3CC[C@H](n4cc5cc(NC(=O)c6cccc(C(F)(F)F)n6)ccc5n4)CC3)c21` (stereo partly shown) [I-423] yielded a DC50 of less than 10 nM.

`COc1cc2nn([C@H]3CC[C@H](CN(C)C4CCN(c5cccc6c5n(C)c(=O)n6C5CCC(=O)NC5=O)CC4)CC3)cc2cc1NC(=O)n1ccc2cccnc21` (stereo partly shown) [I-113] registered a DC50 of less than 10 nM.

In turn, `COc1cc2nc([C@H]3CC[C@H](CN(C)CCCNc4cccc5c4C(=O)N(C4CCC(=O)NC4=O)C5=O)CC3)sc2cc1NC(=O)c1cncc(C#N)c1` (stereo partly shown) [I-458] yielded a DC50 of more than 200 nM.

The compound `COc1cc2c(cc1NC(=O)c1cccc(C(F)(F)F)n1)cc([C@H]1CC[C@H](CN(C)C3CCN(c4cccc5c4n(C)c(=O)n5C4CCC(=O)NC4=O)CC3)CC1)n2C` (stereo partly shown) [I-41] registered a DC50 of more than 200 nM.

As for `CC(C)(O)c1cc2nn([C@H]3CC[C@H](CN4CCN(c5cccc6c(N7CCC(=O)NC7=O)cncc56)CC4)CC3)cc2cc1NC(=O)c1cccc(C(F)(F)F)n1` [I-224], the DC50 was less than 10 nM.

`Cn1c(=O)n(C2CCC(=O)NC2=O)c2cccc(C3CCN(C[C@H]4CC[C@H](n5cc6cc(NC(=O)c7cccc(C(F)(F)F)n7)c(C7CC7)cc6n5)CC4)CC3)c21` (stereo partly shown) [I-69]: the DC50 was less than 10 nM.

As to `COc1cc2nn([C@H]3CC[C@H](CN(C)C4CCN(c5cccc6c(N7CCC(=O)NC7=O)cncc56)CC4)CC3)cc2cc1NC(=O)c1cncc(Cl)c1` [I-117], the DC50 was in the range of 50 to 100 nM.

For `COc1cc2nn([C@H]3CC[C@H](CN4CCC(c5cccc6c5n(C)c(=O)n6C5CCC(=O)NC5=O)CC4)CC3)cc2cc1NC(=O)c1cc(Cl)cnn1` (stereo partly shown) [I-135], the DC50 is more than 200 nM.

In turn, `COc1cc2nn([C@H]3CC[C@H](CN4C5CCC4CN(c4cccc6c(N7CCC(=O)NC7=O)cncc46)C5)CC3)cc2cc1NC(=O)c1cccc(C(F)(F)F)n1` [I-219] registered a DC50 of less than 10 nM.

Compound `CN(CCCCNc1cccc2c1C(=O)N(C1CCC(=O)NC1=O)C2=O)C[C@H]1CC[C@H](c2nc3cc(C(C)(C)O)c(NC(=O)c4cccc(C#N)n4)cc3s2)CC1` (stereo partly shown) [I-445] yielded a DC50 of less than 10 nM.

Compound `O=C1CCN(c2cncc3cc(N4CCN(C[C@H]5CC[C@H](n6cc7cc(NC(=O)c8cccc(C(F)(F)F)n8)ccc7n6)CC5)CC4)ccc23)C(=O)N1` [I-161] came in with a DC50 of more than 200 nM.

In turn, `COc1cc2nn([C@H]3CC[C@H](CN(C)C4CCN(c5cc(C)cc6c5n(C)c(=O)n6C5CCC(=O)NC5=O)CC4)CC3)cc2cc1NC(=O)c1cccc(C(F)(F)F)n1` (stereo partly shown) [I-56] came in with a DC50 of 10 to 50 nM.

With `CN(Cc1ccc(-n2cc3cc(NC(=O)c4cccc(C(F)(F)F)n4)c(C(C)(C)O)cc3n2)cc1)[C@H]1CC[C@H](Nc2cccc3c2C(=O)N(C2CCC(=O)NC2=O)C3=O)CC1` (stereo partly shown) [I-463], the DC50 lay in the range of 10 to 50 nM.

Regarding `CC(C)(O)c1cc2nc([C@H]3CC[C@H](C(=O)N4CC5(CC(CCNc6cccc7c6C(=O)N(C6CCC(=O)NC6=O)C7=O)C5)C4)CC3)sc2cc1NC(=O)c1cncc(C#N)c1` (stereo partly shown) [I-448], the DC50 was more than 200 nM.

For `COc1cc2c(cc1NC(=O)c1cccc(C(F)(F)F)n1)cc([C@H]1CC[C@H](CN3CCC(c4cccc5c4n(C)c(=O)n5C4CCC(=O)NC4=O)CC3)CC1)n2C` (stereo partly shown) [I-43], the DC50 is more than 200 nM.

In turn, `Cn1c(=O)n(C2CCC(=O)NC2=O)c2cccc(C3CCN(C[C@H]4CC[C@H](n5cc6cc(NC(=O)c7cnn8cccnc78)c(F)cc6n5)CC4)CC3)c21` (stereo partly shown) [I-63] showed a DC50 of less than 10 nM.

In turn, `CC(C)Nc1c(C(=O)N[C@H]2CC[C@H](CN3CCN(c4cccc5c(N6CCC(=O)NC6=O)cncc45)CC3)CC2)cnc2sc(-c3cncs3)cc12` [I-418] returned a DC50 of 10 to 50 nM.

Turning to `Cn1c(=O)n(C2CCC(=O)NC2=O)c2cccc(C3CCN(C[C@H]4CC[C@H](n5cc6cc(NC(=O)c7ncc(Cl)s7)ccc6n5)CC4)CC3)c21` (stereo partly shown) [I-247], the DC50 was more than 200 nM.

As to `Cn1c(=O)n(C2CCC(=O)NC2=O)c2ccc(F)c(C3CCN(C[C@H]4C[C@H](n5cc6cc(NC(=O)c7cccc(C(F)(F)F)n7)ccc6n5)C4)CC3)c21` (stereo partly shown) [I-151], the DC50 is less than 10 nM.

For the compound `COc1cc2nc([C@H]3CC[C@H](C(=O)N4CCN(CCCNc5cccc6c5C(=O)N(C5CCC(=O)NC5=O)C6=O)CC4)CC3)sc2cc1NC(=O)c1cccc(C(F)(F)F)n1` (stereo partly shown) [I-466], the DC50 lay in the range of 50 to 100 nM.

Regarding `COc1cc2nn([C@H]3CC[C@H](CN4CCC(c5cccc6c5n(C)c(=O)n6C5CCC(=O)NC5=O)CC4)CC3)cc2cc1NC(=O)c1cncc(Cl)c1` (stereo partly shown) [I-93], the DC50 is less than 10 nM.

Consider `CC(C)Nc1cc(-n2ccc3cc(C#N)cnc32)ncc1C(=O)N1CCC(CN(C)C2CCN(c3cccc4c3n(C)c(=O)n4C3CCC(=O)NC3=O)CC2)CC1` (stereo not shown) [I-115], for which the DC50 is more than 200 nM.

`Cn1c(=O)n(C2CCC(=O)NC2=O)c2cccc(C3CCN(C[C@H]4CC[C@H](n5cc6cc(NC(=O)c7cccc(C(F)(F)F)n7)c(N7C[C@H]8C[C@@H]7CO8)cc6n5)CC4)CC3)c21` (stereo partly shown) [I-44] gave a DC50 of less than 10 nM.

On to `COc1cc2nn([C@H]3CC[C@H](CN4CCN(c5ccc6c(N7CCC(=O)NC7=O)cncc6c5OC)CC4)CC3)cc2cc1NC(=O)c1cccc(C(F)(F)F)n1` [I-376], for which the DC50 lay within 10 to 50 nM.

As to `Cc1cc2nn([C@H]3CC[C@H](CN4CCC(c5cccc6c5n(C)c(=O)n6[C@H]5CCC(=O)NC5=O)CC4)CC3)cc2cc1NC(=O)c1cccc(C(F)(F)F)n1` (single isomer, unassigned) [I-390], the DC50 is 10 to 50 nM.

For the compound `Cn1c(=O)n(C2CCC(=O)NC2=O)c2cccc(N3CCN(C[C@H]4CC[C@H](n5cc6cc(NC(=O)c7cccc(C(F)(F)F)n7)c(C#N)cc6n5)CC4)CC3)c21` (stereo partly shown) [I-363], the DC50 is less than 10 nM.

In turn, `COc1cc2nc([C@H]3CC[C@H](CN(C)CCCCNc4cccc5c4C(=O)N(C4CCC(=O)NC4=O)C5=O)CC3)sc2cc1NC(=O)c1cccc(C#N)n1` (stereo partly shown) [I-433] came in with a DC50 of 10 to 50 nM.

The compound `Cc1ccc2c(c1C1CCN(C[C@H]3CC[C@H](n4cc5cc(NC(=O)c6cccc(C(F)(F)F)n6)ncc5n4)CC3)CC1)n(C)c(=O)n2C1CCC(=O)NC1=O` (stereo partly shown) [I-102] returned a DC50 of less than 10 nM.

As for `Cn1c(=O)n(C2CCC(=O)NC2=O)c2cccc(N3CCCN(C[C@H]4CC[C@H](n5cc6cc(NC(=O)c7cccc(C(F)(F)F)n7)ccc6n5)CC4)CC3)c21` (stereo partly shown) [I-328], the DC50 was 10 to 50 nM.

`Cn1c(=O)n(C2CCC(=O)NC2=O)c2cccc(N3CCN(C[C@H]4CC[C@H](n5cc6cc(NC(=O)c7cccc(C(F)(F)F)n7)c(N7CCC7)cc6n5)CC4)CC3)c21` (stereo partly shown) [I-387] showed a DC50 of 10 to 50 nM.

With `COc1cc2nn([C@H]3CC[C@H](CN4CCN(c5cccc6c5n(C)c(=O)n6C5CCC(=O)NC5=O)CC4)CC3)cc2cc1NC(=O)c1cncc(C)c1` (stereo partly shown) [I-365], the DC50 was less than 10 nM.

As to `COc1cc2nn([C@H]3CC[C@H](CN4CCC(c5cccc6c(N7CCC(=O)NC7=O)cncc56)CC4)CC3)cc2cc1NC(=O)c1cc(F)cc(C(F)(F)F)c1` [I-123], the DC50 was 10 to 50 nM.

`COc1cc2nn([C@H]3CC[C@H](CN4CCN(c5cccc6c5n(C)c(=O)n6C5CCC(=O)NC5=O)CC4)CC3)cc2cc1NC(=O)c1ccnc(C(F)(F)F)n1` (stereo partly shown) [I-298] displayed a DC50 of less than 10 nM.

Consider `CC(C)Nc1cc(-n2ccc3cc(C#N)cnc32)ncc1C(=O)N[C@H]1CC[C@H](CN2CCC(c3ccc4c(N5CCC(=O)NC5=O)cncc4c3)CC2)CC1` [I-127], for which the DC50 lay in the range of 10 to 50 nM.

Consider `CN(C[C@H]1CC[C@H](n2cc3cc(NC(=O)C4CC4)c(C(C)(C)O)cc3n2)CC1)C1CCN(Cc2cccc3c2n(C)c(=O)n3C2CCC(=O)NC2=O)CC1` (stereo partly shown) [I-1], for which the DC50 is more than 200 nM.

Take `CN(CCn1cc2cc(NC(=O)c3cccc(C(F)(F)F)n3)c(F)cc2n1)C1CCN(c2cccc3c2n(C)c(=O)n3C2CCC(=O)NC2=O)CC1` (stereo not shown) [I-19, N-[2-[2-[[1-[1-(2,6-dioxo-3-piperidyl)-3-methyl-2-oxo-benzimidazol-4-yl]-4-piperidyl]-methyl-amino]ethyl]-6-fluoro-indazol-5-yl]-6-(trifluoromethyl)pyridine-2-carboxamide]: the DC50 was more than 200 nM.

In turn, `COc1ccc2c(c1C1CCN(C[C@H]3CC[C@H](n4cc5cc(NC(=O)c6cccc(C#N)n6)ccc5n4)CC3)CC1)n(C)c(=O)n2C1CCC(=O)NC1=O` (stereo partly shown) [I-200] came in with a DC50 of less than 10 nM.
